Measured values taken from patent publication US20250249056A1, “CANCER THERAPIES COMPRISING A NUCLEAR EXPORT INHIBITOR AND AN ONCOLYTIC VIRUS” (priority 2022, published 2025).

System: Colo205 cells
Type: cell-based, human
Details: selinexor-treated nucleus vs MYXV + selinexor-treated nucleus

## O=C(/C=C\n1cnc(-c2cc(C(F)(F)F)cc(C(F)(F)F)c2)n1)NNc1cnccn1 [selinexor]
  Differential protein expression B2CWG0 m053R: 0.01
  Differential protein expression B2CWG4 m057L: 0.01
  Differential protein expression B2CWG5 m058R: 0.176
  Differential protein expression B2CWG7 m060R: 0.01
  Differential protein expression B2CWG8 m061R: 0.01
  Differential protein expression B2CWH0: 0.069
  Differential protein expression B2CWH1 m064R: 0.211
  Differential protein expression B2CWH3 m066R: 0.01
  Differential protein expression B2CWH6 m069L: 0.01
  Differential protein expression B2CWH8: 0.232
  Differential protein expression B2CWI0: 0.021
  Differential protein expression B2CWI3 m076R: 0.096
  Differential protein expression B2CWI4 m077L: 0.01
  Differential protein expression B2CWI6 m079R: 0.131
  Differential protein expression B2CWI7 m080R: 0.036
  Differential protein expression B2CWJ3: 0.01
  Differential protein expression B2CWJ5: 0.01
  Differential protein expression B2CWJ9 m092L: 0.16
  Differential protein expression B2CWK2 m095L: 0.029
  Differential protein expression B2CWL4: 0.01
  Differential protein expression B2CWL5 m108R: 0.088
  Differential protein expression B2CWL8 m111R: 0.101
  Differential protein expression B2CWM1: 0.083
  Differential protein expression B2CWM2 m115L: 0.077
  Differential protein expression B2CWP6 m139R: 0.04
  Differential protein expression B2CWP9 m142R: 0.01
  Differential protein expression B2CWQ5 m149R: 0.01
  Differential protein expression B2CWQ7: 0.229
  Differential protein expression B2CWR1 m156R: 0.022
  Differential protein expression D2WM37 m012L: 0.058
  Differential protein expression D2WMA0 m030L: 0.057
  Differential protein expression D2WN05 m078R: 0.021
  Differential protein expression D2WN26 m090L: 0.097
  Differential protein expression D2WN93 m151R: 0.255
  Differential protein expression D3W0C4 m130R: 0.01
  Differential protein expression E2CZH7 m088L: 0.01
  Differential protein expression E2CZJ6 m107L: 0.01
  Differential protein expression E2CZJ9 m110L: 0.01
  Differential protein expression E2CZK3 m114R: 0.083
  Differential protein expression E2CZL2 m123R: 0.277
  Differential protein expression E2CZL6 m127L: 0.025
  Differential protein expression E2CZM0 m131R: 0.01
  Differential protein expression E2CZM2 m133R: 0.048
  Differential protein expression E2CZP2 m001R: 0.037
  Differential protein expression E2CZQ3 m009L: 0.132
  Differential protein expression E2CZQ9 m014L: 0.092
  Differential protein expression E2CZR0 m015L: 0.04
  Differential protein expression E2CZR6 m021L: 0.133
  Differential protein expression E2CZV0 m055R: 0.052
  Differential protein expression E2CZV1 m056R: 0.01
  Differential protein expression E2CZV4 m059R: 0.01
  Differential protein expression E2CZW3 m068R: 0.052
  Differential protein expression E2CZW7 m072L: 0.211
  Differential protein expression E2CZY1 m086L: 0.01
  Differential protein expression K4JKC2 m073R: 0.021
  Differential protein expression O00584 RNASET2: 0.01
  Differential protein expression O10625 M-T1: 0.037
  Differential protein expression O55698 M-T4: 0.122
  Differential protein expression O76013 KRT36: 0.01
  Differential protein expression O76015 KRT38: 0.01
  Differential protein expression P01100 FOS: 0.211
  Differential protein expression P05090 APOD: 0.01
  Differential protein expression P07942 LAMB1: 0.128
  Differential protein expression P10909 CLU: 0.01
  Differential protein expression P14209 CD99: 0.01
  Differential protein expression P17066 HSPA6: 0.01
  Differential protein expression P17516 AKR1C4: 0.01
  Differential protein expression P50583 NUDT2: 0.01
  Differential protein expression P68544 PAPS: 0.044
  Differential protein expression P68550: 0.168
  Differential protein expression Q5BJH7 YIF1B: 0.161
  Differential protein expression Q5VVJ2 MYSM1: 0.01
  Differential protein expression Q6SJ93 FAM111B: 0.253
  Differential protein expression Q8IY95 TMEM192: 0.01
  Differential protein expression Q8TB72 PUM2: 0.01
  Differential protein expression Q8TDQ7 GNPDA2: 0.01
  Differential protein expression Q9P000 COMMD9: 0.213
  Differential protein expression Q9PX24 m007L: 0.087
  Differential protein expression Q9PX36 m006L: 0.035
  Differential protein expression Q9PXA3 m004L: 0.122
  Differential protein expression Q9Q8F0 m154L: 0.125
  Differential protein expression Q9Q8F9 m144R: 0.179
  Differential protein expression Q9Q8G2 m140R: 0.165
  Differential protein expression Q9Q8G4 m137R: 0.01
  Differential protein expression Q9Q8G6 m135R: 0.021
  Differential protein expression Q9Q8H2 m129R: 0.119
  Differential protein expression Q9Q8H9 m122R: 0.022
  Differential protein expression Q9Q8I1 m120L: 0.024
  Differential protein expression Q9Q8I4 m117L: 0.027
  Differential protein expression Q9Q8I6 m114R: 0.083
  Differential protein expression Q9Q8J1 m109L: 0.032
  Differential protein expression Q9Q8J4 m106L: 0.01
  Differential protein expression Q9Q8J5 m105L: 0.01
  Differential protein expression Q9Q8J9 m101L: 0.01
  Differential protein expression Q9Q8K1 m099L: 0.03
  Differential protein expression Q9Q8K3 m097R: 0.01
  Differential protein expression Q9Q8K6 m094R: 0.01
  Differential protein expression Q9Q8K7 m093L: 0.039
  Differential protein expression Q9Q8L1 m089L: 0.01
  Differential protein expression Q9Q8L3 m087L: 0.069
  Differential protein expression Q9Q8L8 m082R: 0.037
  Differential protein expression Q9Q8L9 VETFS: 0.087
  Differential protein expression Q9Q8M5 m075R: 0.01
  Differential protein expression Q9Q8M6 m074R: 0.047
  Differential protein expression Q9Q8M9 m071L: 0.232
  Differential protein expression Q9Q8N0 m070R: 0.01
  Differential protein expression Q9Q8N5: 0.069
  Differential protein expression Q9Q8N8 m058R: 0.176
  Differential protein expression Q9Q8P4 m052L: 0.029
  Differential protein expression Q9Q8P7 m049R: 0.051
  Differential protein expression Q9Q8Q1: 0.059
  Differential protein expression Q9Q8Q3 m043L: 0.067
  Differential protein expression Q9Q8Q6 m040L: 0.011
  Differential protein expression Q9Q8Q8 m038L: 0.023
  Differential protein expression Q9Q8R0 m036L: 0.099
  Differential protein expression Q9Q8R4 m032R: 0.01
  Differential protein expression Q9Q8R5 m031R: 0.011
  Differential protein expression Q9Q8S0 m026R: 0.039
  Differential protein expression Q9Q8S2 m020L: 0.191
  Differential protein expression Q9Q8S8 m013L: 0.172
  Differential protein expression Q9Q817 m113R: 0.037
  Differential protein expression Q9UHX3 ADGRE2: 0.01
  Differential protein expression Q9UJ68 MSRA: 0.202
  Differential protein expression Q9YQ03 mt6: 0.031
  Differential protein expression Q68DK2 ZFYVE26: 0.092
  Differential protein expression Q77P93 m003.2L: 0.049
  Differential protein expression Q77PB1 m003.1L: 0.145
  Differential protein expression Q86WV6 STING1: 0.01
  Differential protein expression Q96HD1 CRELD1: 0.01
  Differential protein expression Q96LJ7 DHRS1: 0.01
  Differential protein expression Q12913 PTPRJ: 0.01
  Differential protein expression Q16204 CCDC6: 0.249
  Differential protein expression Q58719 SFT2D3: 0.01
  Differential protein expression Q83604 MF13: 0.058
  Differential protein expression Q83730 m005R: 0.01
  Differential protein expression Q85296: 0.124
  Differential protein expression Q85297: 0.01
